Data on 14 molecules can be found in patent US5185352A, “Alkoxy-4(1H)-pyridone derivatives, processes for the preparation thereof and pharmaceutical compositions containing them” (Goedecke Aktiengesellschaft, priority 1988, dated 1993).

The test system of experiment [1] is Noradrenaline-Precontracted Aorta. Briefly: Endothelium-dependent smooth muscle relaxation of noradrenaline-precontracted rabbit aorta rings in an organ bath. As to conditions: Oryctolagus cuniculus, noradrenaline 3 × 10^-7 mol/L. On the procedure:
Rabbit aorta rings are fixed in an organ bath filled with physiological salt solution (Krebs-Henseleit) between L-shaped wires. The solution is gassed with carbogen. Contractions are initiated by 3×10^-7 noradrenaline. When the tension has reached a stable plateau, compounds of the instant invention are added. The effect of the compounds first is tested on organ preparation with functioning endothelium. In an additional experiment in order to test whether the relaxation is endothelium-dependent the compounds are tested with aorta rings with damaged endothelium. For an endothelium-dependent relaxation, effected by the endothelium-derived relaxating factor (EDRF), the following characteristics are required: absence of the effect in preparations with damaged endothelium, no inhibition of the relaxation by indomethazine and inhibition of the relaxation by NDGA (nordihydro-guaiaretic acid), methylene blue and gossypol. These criteria are completely met by the compounds listed in Table II, and one can conclude, that the compounds of the instant invention act in an unexpected manner by the release of EDRF, and thereby relax vascular smooth muscle.

Experiment [2] addresses calcium- and phospholipid-dependent protein kinase (PKC). Briefly: Inhibition of the activity of protein kinase C (incorporation of P^32-labelled phosphate into histone H-1). The format is biochemical. The following applies: PKC enriched from rat brain; histone H-1 substrate; 5 min, 30° C.; pH 7.5. The text has this:
For the clarification of the inhibiting influence of compounds of formula I according to the present invention on the calcium- and phospholipid-dependent protein kinase (PKC), this enzyme activity was enriched from rat brain. Using the purification steps described in the literature (J. Biol. Chem., 260, 15718-15722/1985), in the case of a purification consisting of two steps, there was utilized the property of the enzyme to bind to cell membranes in the presence of calcium and to be dissolved off again by calcium chelators (EGTA). In the first enrichment step, there took place the binding of the PKC to membranes of the rat brain and in the second step on so-called inside-out vesicles or erythrocytes. After dissolving off from the erythrocyte membranes and rebuffering, the PKC preparation was present in 10 mM HEPES, 1 mM DTT, 0.1% PEG 20000, pH 7.5. Under these conditions, it could be stored at -70° C. for several months without loss of activity.
The activity of the enzyme was determined via the incorporation of P^32 -labelled phosphate into the protein histone H-1 (Sigma Type III) which can be phosphorylated by PKC.
The test thereby contains the following components: 50 mM HEPES-NaOH (pH 7.5), 5 mM magnesium chloride, 1 mM DTT, 4 μm. free calcium ions, 10 μMaTP, 1 μg phosphatidylserine, 0.2 μg 1,2-diolein, as well as 40 μg histone H-1 and optionally the test substance.
The batch is preincubated for 4 minutes at 30° C. and the reaction then started by the addition of 5 nM PKC. After incubating for 5 minutes at 30° C., the reaction is stopped with 10% TCA and the samples then filtered off. The phosphate incorporation is determined by Cerenkov counting in a scintillation counter. The kinase activity measured in the absence of the test substance was, in each case, taken as being 100% and the inhibiting action of the compounds of formula I referred thereto as percentages.

Where [3] appears, read: damaged endothelium, read-out: Relaxation of Noradrenaline-Precontracted Aorta, EC50, Damaged Endothelium.
The mark [4] stands for this setting: functioning endothelium, read-out: Relaxation of Noradrenaline-Precontracted Aorta, EC50, Functioning Endothelium.

pEC50, pIC50: −log10 of the molar value. Where a name gives a salt, the structure may show the parent alone. Read-outs that look alike come from different tables or passages of the source.

For orientation: pEC50 means the EC50 on a negative log10 scale, so that one unit is a factor of ten. In general, pIC50 refers to the negative decadic logarithm of the IC50, by convention in mol/L.

For `CC(=O)OCC[N+](C)(C)C` [Acetylcholine, reference compound], the negative-log EC50 (pEC50) is under 4.00 in experiment [1] (setting [3]) and 7.52 in experiment [1] (setting [4]). As to `CCCCCCCCCCCCCCCCCCOc1cn(Cc2ccccc2)c(CNCCCN(C)C)cc1=O` [Example 54, 1-Benzyl-2-[N-(3-dimethylaminopropyl)-aminomethyl]-5-octadecyloxy-4(1H)-pyridone dioxalate], the values for the pEC50 in experiment [1] (setting [3]) and in experiment [1] (setting [4]) were under 4.00 and 4.82, respectively. In experiment [2], the negative-log IC50 (pIC50) was 5.85. For the molecule `CCCCCCCCCCCCCCCCCCOc1cn(Cc2ccc(Cl)cc2)c(CNCCCN(C)C)cc1=O` [Example 69, 1-(4-Chlorobenzyl)-2-[N-(3-dimethylamino-propyl)aminomethyl]-5-octadecyloxy-4(1H)-pyridone difumarate 1.25 hydrate], the pEC50 in experiment [1] (setting [3]) was under 4.00; in experiment [1] (setting [4]), 4.52. The negative logarithm of the IC50 (pIC50) in experiment [2] is 5.82. With `CCCCCCCCCCCCCCCCCCOc1cn(Cc2ccccc2)c(CNCCCN(C)Cc2ccccc2)cc1=O` [Example 71, 1-Benzyl-2-[N-(3-N-benzyl-N-methylaminopropyl)aminomethyl]-5-octadecyloxy-4(1H)-pyridone difumarate], the pEC50 in experiment [1] (setting [3]) was under 4.00; in experiment [1] (setting [4]) it was 5.52. In addition, the negative-log IC50 (pIC50) in experiment [2] was 5.74. With `CCCCCCCCCCCCCCCCCCOc1cn(Cc2ccccc2)c(CN2CCN(Cc3ccccc3)CC2)cc1=O` [Example 88, 1-[(1-Benzyl-5-octadecyloxy-4(1H)-pyridon-2-yl)methyl]-4-benzylpiperazine], the pEC50 in experiment [1] (setting [3]) is under 4.00; in experiment [1] (setting [4]) it was 5.47. The pIC50 in experiment [2] is 5.52. Regarding `CCCCCCCCCCCCCCCCCCOc1cn(Cc2ccccc2)c(CN2CCC(CN)(c3ccccc3)CC2)cc1=O` [Example 101, 1-[(1-Benzyl-5-octadecyloxy-4(1H)-pyridon-2-yl)methyl]-4-aminomethyl-4-phenylpiperidine trihydrochloride], the negative logarithm of the EC50 (pEC50) in experiment [1] (setting [3]) was under 4.00; in experiment [1] (setting [4]) it was 4.70. Also, the negative-log IC50 (pIC50) in experiment [2] was 5.82. Turning to `CCCCCCCCCCCCCCCCCCOc1cn(Cc2ccccc2)c(COCCCN(C)C)cc1=O` [Example 103, 1-Benzyl-2-(3-dimethylaminopropoxymethyl)-5-octadecyloxy-4(1H)-pyridone dihydrochloride], the pIC50 in experiment [2] is 5.40. Take `CCCCCCCCCCCCCCCCCCOc1cn(CCC)c(COCCCN(C)C)cc1=O` [Example 105, 2-(3-Dimethylaminopropoxymethyl)-5-octadecyloxy-1-propyl-4(1H)-pyridone dihydrochloride 3/4 hydrate]: the pIC50 in experiment [2] is 5.70.

Take `CCCCCCCCCCCCCCCCCCOc1cn(Cc2ccc(C)cc2)c(COCCCN(C)C)cc1=O` [Example 106, 2-(3-Dimethylaminopropoxymethyl)-1-(4-methylbenzyl)-5-octadecyloxy-4(1H)-pyridone dihydrochloride sesquihydrate]: the pIC50 in experiment [2] is 5.62. `CCCCCCCCCCCCCCCCCCOc1cn(Cc2ccc(OC)cc2)c(COCCCN(C)C)cc1=O` [Example 107, 2-(3-Dimethylaminopropoxymethyl)-1-(4-methoxybenzyl)-5-octadecyloxy-4(1H)-pyridone dihydrochloride 1/4 hydrate]: the negative logarithm of the IC50 (pIC50) in experiment [2] was 5.54. As to `CCCCCCCCCCCCCCCCCCOc1cn(CC2CCCCC2)c(COCCCN(C)C)cc1=O` [Example 108, 1-Cyclohexylmethyl-2-(3-dimethylaminopropoxymethyl)-5-octadecyloxy-4(1H)-pyridone oxalate], the pIC50 in experiment [2] was 5.54.

Take `CCCCCCCCCCCCCCCCCCOc1cn(Cc2ccc(Cl)cc2)c(COCCCN(C)C)cc1=O` [Example 109, 1-(4-Chlorobenzyl)-2-(3-dimethylaminopropoxymethyl)-5-octadecyloxy-4(1H)-pyridone dihydrochloride 2.5 hydrate]: in experiment [2], the pIC50 was 5.59. Still for that read-out and setting: next, `CCCCCCCCCCCCCCCCCCOc1cn(Cc2ccccc2)c(CCC(=O)OC)cc1=O` [Example 114, Methyl 3-[1-benzyl-5-octadecyloxy-4(1H)-pyridon-2-yl]-propionate]: 5.05; `CCCCCCCCCCCCCCCCCCOc1cn(Cc2ccccc2)c(CCC(N)=O)cc1=O` [Example 116, 3-[1-benzyl-5-octadecyloxy-4(1H)-pyridon-2-yl]-propionic acid amide]: 5.05.
